PubChem BioAssay (NCI)
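Values below derive from 48-hour exposures of cells grown in 96-well plates, with endpoints linearly interpolated between the two concentrations bracketing the appropriate inhibition level. GI50 = concentration required for 50% inhibition of growth. The concentration for full growth arrest is given as TGI.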

Columns and labels:
Experiment in all cases: NCI tumour cell line growth inhibition, 48 h
[1] = tested on: DLD-1 colon
[2] = tested on: DMS 114 small cell lung
[3] = tested on: DMS 273 small cell lung
[4] = tested on: HOP-18 NSCLC
[5] = tested on: M19-MEL melanoma
[6] = tested on: SNB-78 CNS
[7] = tested on: LXFL 529 NSCLC
[8] = tested on: RXF-631 renal
[9] = tested on: XF 498 CNS
[10] = tested on: P388 leukemia
[11] = tested on: P388/ADR leukemia
[12] = tested on: SN12K1 renal

Compound | TGI [1] | TGI [2] | TGI [3] | TGI [4] | TGI [5] | TGI [6] | TGI [7] | TGI [8] | TGI [9] | TGI [10] | TGI [11] | TGI [12] | GI50 [1] | GI50 [3] | GI50 [4] | GI50 [7] | GI50 [5] | GI50 [6] | GI50 [9]
COc1cccc(C2SCc3nc4ccccc4n32)c1 (centres undefined) | > 100 µM | > 100 µM | > 100 µM | > 100 µM | > 100 µM | > 100 µM |  |  |  |  |  |  |  |  |  |  |  |  | 
C=C1CC2(CCS(=O)(=O)c3ccccc32)OC1=O (centres undefined) | 25.9 µM | 14.2 µM | 30.5 µM | 14.7 µM | 37.2 µM | 33.6 µM | 15.9 µM | 43.4 µM | 26.1 µM |  |  |  |  |  |  |  |  |  | 
CCC1(c2ccc(N)cc2)CCC(=O)NC1=O (centres undefined) | > 5000 µM | > 4320 µM | > 5000 µM | > 4910 µM | > 4740 µM | 4970 µM |  |  | 4260 µM | > 5000 µM | > 2810 µM | > 5000 µM |  |  |  |  |  |  | 
N#CCc1nnc(N)o1 | > 100 µM |  | > 100 µM |  | > 100 µM | > 100 µM | > 100 µM | > 100 µM | > 100 µM |  |  |  |  |  |  |  |  |  | 
O=C(O)CN(c1ccc(F)cc1)S(=O)(=O)c1ccccc1 | > 100 µM |  | > 100 µM | > 100 µM | > 100 µM |  | > 100 µM | > 100 µM | > 100 µM |  |  |  |  |  |  |  |  |  | 
COC(=O)C1[C@H](c2ccc3c(c2)OCO3)OC(=O)[C@]1(C(=O)OC)C(=O)c1ccc(OC)c(OC)c1 (some centres undefined) | 40.1 µM |  | 71.6 µM | > 100 µM | > 100 µM | > 100 µM | > 100 µM |  | > 100 µM |  |  |  |  |  |  |  |  |  | 
CC[PH+](CC)CC.CC[PH+](CC)CC.[Au] | 18.9 µM |  | 38.3 µM | 22.1 µM | 31.9 µM | 53.1 µM | 6.33 µM |  | 26.4 µM |  |  |  | 5.52 µM | 17 µM | 8 µM | 2.31 µM | 4.06 µM | 6.82 µM | 11 µM
CCOC(=O)CN(c1ccccc1)c1nc(=[N+](C)C)ss1 | > 100 µM | 27.7 µM | 33.8 µM | > 100 µM | 34 µM | > 100 µM |  |  |  |  |  |  |  |  |  |  |  |  | 
Cc1ccc(C(=O)NCCN(C)C)c2nc3ccccc3cc12 | > 100 µM | > 100 µM | 2 µM | 9.89 µM | > 100 µM | > 100 µM | > 100 µM | 12 µM | 3.95 µM |  |  |  |  |  |  |  |  |  | 
Cc1ccc(C2=Nc3ccccc3S(=O)C(c3ccc4c(c3)OCO4)C2)cc1 (centres undefined) | 30.7 µM |  | > 100 µM | > 100 µM | > 100 µM | 86.9 µM | > 10 µM |  | 36.1 µM |  |  |  |  |  |  |  |  |  | 
O=C1C(=O)N(c2ccc(Cl)cc2)C(=O)C(=Nc2cccc3c(=O)[nH][nH]c(=O)c23)C1c1nc2ccccc2o1 (centres undefined) | > 100 µM |  | > 100 µM | > 100 µM | > 100 µM | > 100 µM | > 100 µM | > 100 µM |  |  |  |  |  |  |  |  |  |  | 
